The record followed here is US20070117770A1, “Human ribosomal DNA (rDNA) and ribosomal RNA (rRNA) nucleic acids and uses thereof” (Cylene Pharmaceuticals, Inc., priority 2005, published 2007).

What all share (assay): Protein kinase inhibition assay
Holding throughout (format): biochemical

In one experiment the target is PAK6(h) (Homo sapiens, UniProt Q9NQU5). As to conditions: read-out: percent residual activity of PAK6(h). Here is the method: (§1) Certain compounds were tested for activity in protein kinase inhibition assays. All substrates were dissolved and diluted to working stocks in de-ionized water, apart from histone H1 (10× working stock in 20 mM MOPS pH 7.0), PDKtide (10× working stock in 50 mM Tris pH 7.0) ATF2 (which is typically stored at a 20× working stock in 50 mM Tris pH 7.5, 150 mM NaCl, 0.1 mM EGTA, 0.03% Brij-35, 50% glycerol, 1 mM benzamidine, 0.2 mM PMSF and 0.1% R-mercaptoethanol), KKLNRTLSFAEPG (SEQ ID NO:203) and RRRLSFAEPG (SEQ ID NO:204) (50 mM HEPES pH 7.4) and GGEEEEYFELVKKKK (SEQ ID NO:205) (20 mM MOPS pH 7.0). All kinases were pre-diluted to a 10× working concentration prior to addition into the assay. The composition of the dilution buffer for each kinase is detailed below.
Chain of PAK6(h) (Q9NQU5 whole entry): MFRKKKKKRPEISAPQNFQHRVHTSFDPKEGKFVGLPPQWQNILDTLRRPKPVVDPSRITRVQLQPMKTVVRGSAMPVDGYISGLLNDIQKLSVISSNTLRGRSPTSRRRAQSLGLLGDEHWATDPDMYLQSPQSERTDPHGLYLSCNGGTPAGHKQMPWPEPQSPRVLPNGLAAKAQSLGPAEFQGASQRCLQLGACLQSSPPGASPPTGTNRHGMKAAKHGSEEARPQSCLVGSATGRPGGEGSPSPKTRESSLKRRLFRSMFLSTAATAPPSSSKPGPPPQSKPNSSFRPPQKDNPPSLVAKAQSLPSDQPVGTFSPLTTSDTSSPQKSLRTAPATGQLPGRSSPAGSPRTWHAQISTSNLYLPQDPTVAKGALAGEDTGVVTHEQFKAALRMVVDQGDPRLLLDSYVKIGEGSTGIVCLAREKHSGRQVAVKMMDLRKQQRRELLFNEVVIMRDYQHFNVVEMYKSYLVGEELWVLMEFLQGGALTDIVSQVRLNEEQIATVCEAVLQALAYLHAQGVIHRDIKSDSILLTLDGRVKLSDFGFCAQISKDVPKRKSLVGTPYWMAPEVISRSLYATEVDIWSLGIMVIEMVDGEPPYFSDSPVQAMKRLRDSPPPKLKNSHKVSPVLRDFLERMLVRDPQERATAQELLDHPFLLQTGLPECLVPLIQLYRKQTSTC
(§2) In a final reaction volume of 25 μl, PAK6 (h) (5-10 mU) is incubated with 8 mM MOPS pH 7.0, 0.2 mM EDTA, 200 μM RRRLSFAEPG (SEQ ID NO:223), 10 mM MgAcetate and [y-33P-ATP] (specific activity approx. 500 cpm/pmol, concentration as required). The reaction is initiated by the addition of the MgATP mix. After incubation for 40 minutes at room temperature, the reaction is stopped by the addition of 5 μl of a 3% phosphoric acid solution. 10 μl of the reaction is then spotted onto a P30 filtermat and washed three times for 5 minutes in 75 mM phosphoric acid and once in methanol prior to drying and scintillation counting.

A further experiment addresses PKD2(h) (Homo sapiens, UniProt Q9BZL6). Conditions: read-out: percent residual activity of PKD2(h). Here is the method: as §1
In a final reaction volume of 25 μl, PKD2 (h) (5-10 mU) is incubated with 20 mM HEPES pH 7.4, 0.03% Triton X-100, 30 μM KKLNRTLSVA (SEQ ID NO:212) 10 mM MgAcetate and [gamma-33P-ATP] (specific activity approx. 500 cpm/pmol, concentration as required). The reaction is initiated by the addition of the MgATP mix. After incubation for 40 minutes at room temperature, the reaction is stopped by the addition of 5 μl of a 3% phosphoric acid solution. 10 μl of the reaction is then spotted onto a P30 filtermat and washed three times for 5 minutes in 75 mM phosphoric acid and once in methanol prior to drying and scintillation counting.

The target in a further experiment is PKCγ(h) (Homo sapiens, UniProt P05129). Conditions: read-out: percent residual activity of PKCγ(h). The protocol:
as §1
In a final reaction volume of 25 μl, PKCγ (h) (5-10 mU) is incubated with 20 mM HEPES pH 7.4, 0.03% Triton X-100, […], 0.1 mg/ml phosphatidylserine, 10 μg/ml diacylglycerol, 0.1 mg/ml histone H1, 10 mM MgAcetate and [gamma-33P-ATP] (specific activity approx. 500 cpm/pmol, concentration as required). The reaction is initiated by the addition of the MgATP mix. After incubation for 40 minutes at room temperature, the reaction is stopped by the addition of 5 μl of a 3% phosphoric acid solution. […]

In a further experiment the target is ASK1(h) (Homo sapiens, UniProt Q99683). As to conditions: read-out: percent residual activity of ASK1(h). Here is the method:
as §1
as §2, with “ASK1” for “PAK6”, “0.33 mg/ml myelin basic protein,” for “200 μM RRRLSFAEPG (SEQ ID NO:223),”, “[gamma-33P-ATP]” for “[y-33P-ATP]”

Another experiment has as its target CHK2(h) (Homo sapiens, UniProt O96017). Conditions: read-out: percent residual activity of CHK2(h). Here is the method:
as §1
as §2, with “CHK2” for “PAK6”, “RRRLSFAEPG” left out, “NO:213),” for “NO:223),”, “[gamma-33P-ATP]” for “[y-33P-ATP]”

The target in another experiment is EphB3(h) (Homo sapiens, UniProt P54753). As to conditions: read-out: percent residual activity of EphB3(h). The protocol: as §1
Chain of EphB3(h) (P54753 34-998): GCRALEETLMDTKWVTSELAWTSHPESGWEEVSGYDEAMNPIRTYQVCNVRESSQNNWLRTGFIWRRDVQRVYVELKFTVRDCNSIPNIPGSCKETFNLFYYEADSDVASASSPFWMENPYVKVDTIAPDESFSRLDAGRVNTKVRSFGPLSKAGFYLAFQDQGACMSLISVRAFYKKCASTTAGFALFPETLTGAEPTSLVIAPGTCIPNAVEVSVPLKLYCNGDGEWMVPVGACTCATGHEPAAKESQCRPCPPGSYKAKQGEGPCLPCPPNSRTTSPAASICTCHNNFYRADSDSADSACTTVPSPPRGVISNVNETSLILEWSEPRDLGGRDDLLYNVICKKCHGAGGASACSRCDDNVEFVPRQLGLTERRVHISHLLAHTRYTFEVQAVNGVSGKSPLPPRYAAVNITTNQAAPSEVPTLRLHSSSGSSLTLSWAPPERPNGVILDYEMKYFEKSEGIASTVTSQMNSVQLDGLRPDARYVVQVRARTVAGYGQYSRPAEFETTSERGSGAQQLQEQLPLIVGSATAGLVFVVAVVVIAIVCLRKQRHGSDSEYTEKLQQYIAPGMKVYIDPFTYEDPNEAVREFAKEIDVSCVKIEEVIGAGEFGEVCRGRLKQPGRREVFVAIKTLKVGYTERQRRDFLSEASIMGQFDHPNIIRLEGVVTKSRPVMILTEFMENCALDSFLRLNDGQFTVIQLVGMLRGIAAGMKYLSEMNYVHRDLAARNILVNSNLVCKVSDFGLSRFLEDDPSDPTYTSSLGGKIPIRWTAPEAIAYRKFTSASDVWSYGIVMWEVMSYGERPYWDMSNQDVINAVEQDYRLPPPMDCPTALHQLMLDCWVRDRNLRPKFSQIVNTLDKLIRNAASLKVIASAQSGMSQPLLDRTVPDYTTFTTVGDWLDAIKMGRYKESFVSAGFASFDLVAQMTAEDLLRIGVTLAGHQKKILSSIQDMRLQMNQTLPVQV
as §2, with “EphB3” for “PAK6”, “10 mM MnCl2, 0.1 mg/ml poly (Glu, Tyr) 4:1,” for “200 μM RRRLSFAEPG (SEQ ID NO:223),”, “[gamma-33P-ATP]” for “[y-33P-ATP]”, “Filtermat A” for “P30 filtermat”

Chain of PKD2(h) (Q9BZL6 whole entry): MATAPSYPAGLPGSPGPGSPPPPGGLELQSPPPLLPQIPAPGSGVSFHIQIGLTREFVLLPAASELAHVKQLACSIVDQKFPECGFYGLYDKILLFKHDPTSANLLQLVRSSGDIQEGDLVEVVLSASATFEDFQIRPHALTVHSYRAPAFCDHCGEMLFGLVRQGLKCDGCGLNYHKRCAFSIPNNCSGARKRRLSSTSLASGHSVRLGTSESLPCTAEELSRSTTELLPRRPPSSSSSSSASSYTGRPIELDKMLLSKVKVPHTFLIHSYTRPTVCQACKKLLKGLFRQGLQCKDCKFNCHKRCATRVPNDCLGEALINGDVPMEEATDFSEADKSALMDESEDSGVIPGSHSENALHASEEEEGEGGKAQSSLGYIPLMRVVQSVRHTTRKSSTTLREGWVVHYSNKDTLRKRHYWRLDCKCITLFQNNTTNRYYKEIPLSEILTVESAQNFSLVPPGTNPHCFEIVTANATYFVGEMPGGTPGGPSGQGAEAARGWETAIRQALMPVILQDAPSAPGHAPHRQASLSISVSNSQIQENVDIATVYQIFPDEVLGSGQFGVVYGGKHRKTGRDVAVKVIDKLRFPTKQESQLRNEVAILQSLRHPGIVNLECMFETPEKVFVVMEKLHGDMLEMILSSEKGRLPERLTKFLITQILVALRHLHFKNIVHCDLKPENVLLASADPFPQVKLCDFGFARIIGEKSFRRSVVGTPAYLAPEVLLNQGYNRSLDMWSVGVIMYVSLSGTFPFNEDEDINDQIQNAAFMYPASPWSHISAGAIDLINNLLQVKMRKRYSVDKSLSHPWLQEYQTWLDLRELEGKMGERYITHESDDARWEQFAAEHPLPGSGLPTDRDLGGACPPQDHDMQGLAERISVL
Chain of CHK2(h) (O96017 whole entry): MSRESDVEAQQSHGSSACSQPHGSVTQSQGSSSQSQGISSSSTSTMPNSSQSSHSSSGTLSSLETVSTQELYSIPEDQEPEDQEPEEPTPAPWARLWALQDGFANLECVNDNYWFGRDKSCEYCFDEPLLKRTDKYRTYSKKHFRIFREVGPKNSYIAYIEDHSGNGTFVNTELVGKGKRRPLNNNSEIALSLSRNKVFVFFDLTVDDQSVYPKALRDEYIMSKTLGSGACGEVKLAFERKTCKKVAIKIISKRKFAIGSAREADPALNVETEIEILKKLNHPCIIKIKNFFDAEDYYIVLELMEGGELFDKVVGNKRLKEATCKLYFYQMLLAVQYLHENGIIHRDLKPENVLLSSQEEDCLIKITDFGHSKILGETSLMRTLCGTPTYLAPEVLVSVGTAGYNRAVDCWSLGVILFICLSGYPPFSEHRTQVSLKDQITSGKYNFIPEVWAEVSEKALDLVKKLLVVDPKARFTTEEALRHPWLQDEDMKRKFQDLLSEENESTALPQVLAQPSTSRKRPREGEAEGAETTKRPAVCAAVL

`CN1CCCC1CCNC(=O)c1cn2c3c(c(N4CCC(c5cnccn5)C4)c(F)cc3c1=O)Oc1cc3ccccc3cc1-2` (stereo not drawn) [Compound A-1]: the remaining activity at 2.5 µM at PAK6(h) amounted to 123%; on PKD2(h), 79%; at PKCγ(h) it was 110%; at ASK1(h), 98%; on CHK2(h), 62%; on EphB3(h), 111%.

In the case of `CC(=O)N1CCN(c2ccc3c(=O)c(C(=O)NCCN4CCCC4)c4n(C)c5ccccc5n4c3n2)CC1` [Compound B-1], the remaining activity at 2.5 µM stood at 112% on PAK6(h); 98% at PKD2(h); 102% at PKCγ(h); 110% on ASK1(h); 99% at CHK2(h); 115% at EphB3(h).
